Results as given in patent publication US6440659B1, “Inhibitors of retroviral protease as inducers of reversible insulin resistance in vitro and in vivo” (Washington University, priority 2000, dated 2002).
Each block holds one molecule with its values, some of them ahead of it.

Columns and labels:
[1] = biological target: T1, Glut4 (Rattus norvegicus, UniProt P19357); test: [3H]-2-deoxyglucose uptake in Xenopus oocytes expressing Glut4; type: cell-based; conditions: for inhibition at 50 µM: 50 μM (FIG. 3B)
T1 construct: expressed in transfected cells; host or cells: Xenopus laevis oocytes, microinjected with in vitro transcribed mRNA
T1 sequence (P19357 1-509): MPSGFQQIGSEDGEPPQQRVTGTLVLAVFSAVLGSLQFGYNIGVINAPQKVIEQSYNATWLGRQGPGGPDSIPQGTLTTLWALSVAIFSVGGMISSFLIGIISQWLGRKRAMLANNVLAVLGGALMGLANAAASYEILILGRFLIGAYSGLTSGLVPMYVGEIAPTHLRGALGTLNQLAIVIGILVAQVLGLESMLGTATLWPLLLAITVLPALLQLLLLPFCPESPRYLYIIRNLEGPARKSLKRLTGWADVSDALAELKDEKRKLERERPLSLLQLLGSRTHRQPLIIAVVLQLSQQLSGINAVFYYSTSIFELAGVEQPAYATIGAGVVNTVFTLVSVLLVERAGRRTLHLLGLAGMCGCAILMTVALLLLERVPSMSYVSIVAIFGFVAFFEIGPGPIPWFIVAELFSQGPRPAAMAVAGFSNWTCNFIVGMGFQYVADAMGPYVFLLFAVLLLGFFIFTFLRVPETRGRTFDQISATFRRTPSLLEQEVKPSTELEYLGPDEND
Method: (§1) FIG. 3A. Xenopus oocytes heterologously expressing either Glut1 or Glut4 isoforms were used for [^3H]-2-deoxyglucose uptake measurement in Barth's Saline at 22° C. for 30 min. […] Plotted are the mean uptake from 15-20 oocytes±S.E. [* indicates p<0.01 compared with control (ANOVA with Fischer's PLSD posthoc analysis).]
(§2) FIG. 3B. Glucose uptake in X. laevis oocytes as described above. […] The data are normalized to the uptake from the control oocytes which were not exposed to protease inhibitor. [* indicates p<0.0001 compared with control (ANOVA with Fischer's PLSD posthoc analysis).]
(§3) Xenopus laevis oocytes were prepared and injected as described previously (Keller et al., 1989) with 50 ng of either Glut1 or Glut4 mRNA synthesized in vitro (Megascript RNA synthesis kit, Ambion). After a three day incubation in Barth=s saline containing albumin at 18° C., groups of 15-20 oocytes were washed and [^3H]-2-deoxyglucose (50 μM) uptake measurements were performed in Barth's saline at 22° C. for 30 minutes.

[2] = system: 3T3-L1 adipocytes; test: [3H]-2-deoxyglucose uptake in 3T3-L1 adipocytes, basal and insulin-stimulated; type: cell-based; conditions: for effect on insulin-stimulated glucose uptake relative to indinavir: 50 μM (FIG. 1B); for effect on basal glucose uptake: basal conditions
Method: FIG. 1A. […] Results from three experiments were normalized to the value obtained from insulin-stimulated control cells and are shown as the mean±S.E. (n=6). FIG. 1B. […] Results were normalized to the value obtained from insulin-stimulated control cells and are shown as the mean±S.E. (n=3). 3T3-L1 fibroblasts obtained from the American Type Culture Collection were grown to confluence and 48 h later subjected to the differentiation protocol described previously (Tordjman et al. 1989). Mature 3T3-L1 adipocytes were maintained in DMEM supplemented with 10% fetal bovine serum and used 10 to 15 d post-differentiation. 3T3-L1 adipocytes grown in 3.5 cm dishes were serum-starved for at least 3 hours and then washed three times with Krebs-Ringer phosphate buffer. […] Stock solutions of indinavir and amprenavir were made in water. Ritonavir was dissolved in ethanol.

[3] = biological target: T2, Glut1 (Homo sapiens, UniProt P11166); test: [3H]-2-deoxyglucose uptake in Xenopus oocytes expressing Glut1; type: cell-based; conditions: 22° C., 30 min
T2 construct: expressed in transfected cells; host or cells: Xenopus laevis oocytes, microinjected with in vitro transcribed mRNA
T2 sequence (P11166 1-492): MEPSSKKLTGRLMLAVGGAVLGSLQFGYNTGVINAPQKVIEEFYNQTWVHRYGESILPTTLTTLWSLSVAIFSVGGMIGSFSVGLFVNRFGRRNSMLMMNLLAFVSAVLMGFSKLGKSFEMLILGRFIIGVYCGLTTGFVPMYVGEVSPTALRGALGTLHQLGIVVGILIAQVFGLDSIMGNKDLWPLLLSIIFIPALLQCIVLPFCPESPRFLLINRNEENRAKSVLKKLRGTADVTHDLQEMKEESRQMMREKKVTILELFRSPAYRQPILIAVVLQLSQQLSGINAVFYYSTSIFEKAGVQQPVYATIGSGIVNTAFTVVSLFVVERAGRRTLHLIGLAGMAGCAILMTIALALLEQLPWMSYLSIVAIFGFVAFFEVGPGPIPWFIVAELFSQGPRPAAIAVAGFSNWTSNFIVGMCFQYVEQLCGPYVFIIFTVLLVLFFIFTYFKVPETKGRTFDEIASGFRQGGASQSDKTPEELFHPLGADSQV
Method: as §1, §2, §3

[4] = Glucose tolerance after acute indinavir administration in rats; type: in vivo, male Wistar rats
Excerpt: (§4) Male Wistar rats (Charles River Corp) weighing between 250-400 g were used for all experiments described below. Glucose measurements were made using a Glucometer Elite Glucometer (Bayer Corporation, Diagnostics Division, Tarrytown, N.Y.). […] Jugular vein and carotid artery catheters were fabricated using microrenathane tubing (Braintree Scientific) for venous catheters and PE50 tubing (Becton Dickenson) for arterial catheters. Catheters were inserted surgically under methohexital (Jones Pharma Inc, St. Louis, Mo.) anesthesia. Humulin R insulin (Eli Lilly, Indianapolis, Ind.) was used where indicated.

[5] = Euglycemic hyperinsulinemic clamp (peripheral insulin sensitivity) in rats; type: in vivo, male Wistar rats; conditions: for reduction in peripheral insulin sensitivity (average GIR) compared with controls: infusion started 30 min before clamp, p<0.05
Method: Jugular vein and carotid artery catheters were inserted, at least 4 days prior to each experiment, into 200-400 gm male Wistar rats under methohexital anesthesia. Following an overnight fast, rats were infused with insulin (40 mU/kg/min) and 50% dextrose through the venous catheter. Blood was sampled every 5-10 minutes through the arterial catheter and serum glucose concentrations were determined. The glucose infusion rate (GIR) space was adjusted to maintain glucose levels of 100-110 mg/dl.
Male Wistar rats weighing 200-300 gm were catheterized as described in FIG. 5. […] After 30 minutes, insulin (40 mU/kg/min) and 50% dextrose were added to the intravenous infusion. Blood was sampled through the arterial line every 5 min and the dextrose infusion rate was adjusted to maintain plasma glucose levels between 105-115 mg/dL. GIR represents the mean glucose infusion rate during the final 30 minutes of each 2 hour clamp experiment. Results represent the mean±SEM from 3-5 rats per group. [* indicates […]]
as §4
Peripheral insulin sensitivity in rats was assessed by the euglycemic hyperinsulinemic clamp technique. Venous and arterial catheters were surgically inserted into the animals under anesthesia. At least 4 d prior to the initiation of experimental treatments catheters were inserted into both jugular vein and carotid artery locations. Following a 12 hour fast, animals were infused with insulin (40 mU/kg/min) and 50% dextrose in water through the venous catheter. Blood was sampled every 5-10 min through the arterial catheter for serum glucose determinations. The rate of glucose infusion (Glucose Infusion Rate, GIR) was adjusted as necessary to maintain serum glucose at 100-110 mg/dl (FIGS. 5A, 5B, 5C).
Insulin sensitivity was assessed by the average glucose infusion rate required to maintain euglycemia after equilibrium had been established.

[6] = system: Glut4; test: Immunoblot of Glut4 content in PM and LDM fractions of 3T3-L1 adipocytes (translocation); conditions: indinavir-treated cells, 100 μM for 4 h
[7] = system: Glut1; test: Immunoblot of Glut1 content in PM and LDM fractions of 3T3-L1 adipocytes (translocation); conditions: indinavir-treated cells, 100 μM for 4 h
[8] = system: insulin receptor (IR), IRS-1 and Akt phosphorylation; test: Immunoblot of insulin signaling (IR, IRS-1, Akt phosphorylation) in 3T3-L1 adipocytes; type: cell-based; conditions: 100 μM for 4 h, 1 μM insulin 20 min
Method: Cells were further incubated for 20 min with or without 1 μM insulin, and subcellular fractions were subsequently isolate. Plasma membrane (PM), low density microsomal (LDM), and cytosolic (CYT) fractions were subjected to immunoblot analysis using anti-phosphotyrosine antibodies.
Whole cell lysates from 3T3-L1 adipocytes from samples treated as described above were subjected to immunoblot analysis using anti-phospo Akt antibodies, which recognize Akt phosphorylated on threonine 308 and serine 473.

- inhibition at 50 µM [1]: 54%
SMILES: CC(C)CN(C[C@@H](O)[C@H](Cc1ccccc1)NC(=O)O[C@H]1CCOC1)S(=O)(=O)c1ccc(N)cc1 [amprenavir]
- effect on insulin-stimulated glucose uptake relative to indinavir [2]: comparable to that of indinavir

- inhibition at 50 µM [1]: 42%
SMILES: CC(C)c1nc(CN(C)C(=O)N[C@H](C(=O)N[C@@H](Cc2ccccc2)C[C@H](O)[C@H](Cc2ccccc2)NC(=O)OCc2cncs2)C(C)C)cs1 [ritonavir]
- effect on insulin-stimulated glucose uptake relative to indinavir [2]: comparable to that of indinavir

- effect on Glut1 activity in Xenopus oocytes [3]: no effect
- inhibition at 100 µM ([1]; 100 μM (maximum dose tested)): 45%
- IR autophosphorylation and tyrosine phosphorylation of IRS-1 [8]: occurred normally
SMILES: CC(C)(C)NC(=O)[C@@H]1CN(Cc2cccnc2)CCN1C[C@@H](O)C[C@@H](Cc1ccccc1)C(=O)N[C@H]1c2ccccc2C[C@H]1O [indinavir]
- blood glucose concentration at t=30 min ([4]; 10 mg/kg i.p. together with dextrose 2 g/kg i.p., control 195±15, p<0.05): 241 ± 11 mg/dL
- peak plasma glucose concentration ([4]; 15 mg/kg i.v. 5 min prior to glucose 2 gm/kg i.p., control 311±30): 407 ± 25 mg/dL
- reduction in peripheral insulin sensitivity (average GIR) compared with controls ([5]; 0.3 mg/kg/min): 15%
- reduction in peripheral insulin sensitivity (average GIR) compared with controls ([5]; 0.5 mg/kg/min): 40%
- time to restoration of insulin sensitivity to baseline after stopping infusion ([5]; after stopping indinavir infusion): ≤ 4 h
- decrease in GIR required to maintain euglycemia ([5]; i.v. infusion 0.3 mg/kg/min): 20%
- decrease in GIR required to maintain euglycemia ([5]; i.v. infusion 0.5 mg/kg/min, within 90 minutes after start): 50%
- inhibition at 10 µM ([2]; Mus musculus, 3T3-L1, 10 μM, added 6 min prior to assay, 1 μM insulin, p<0.0001, read-out: inhibition of insulin-stimulated glucose uptake): 26%
- inhibition at 100 µM ([2]; Mus musculus, 3T3-L1, 100 μM, added 6 min prior to assay, 1 μM insulin for 20 min, read-out: inhibition of insulin-stimulated glucose uptake): 63%
- effect on basal glucose uptake ([2]; 20 μM): modest increase
- effect on basal glucose uptake ([2]; 10-100 μM): largely unaffected
- extent of inhibition of transport activity when added before or after 20 min of insulin stimulation ([2]; data not shown): did not change
- time to restoration of normal insulin-responsive glucose uptake after removal of drug ([2]; data not shown): ≤ 30 min
- increase with insulin of Glut4 content in plasma membrane (PM) fraction [6]: 38%
- increase with insulin of Glut1 content in plasma membrane (PM) fraction [7]: 63%
- effect on insulin-stimulated phosphorylation of Akt on threonine 308 or serine 473 [8]: no effect
